# From US8901118B2, “Compounds and methods for kinase modulation, and indications therefor” (Plexxikon Inc., priority 2010, dated 2014)
# Tests used:
# c-Kit kinase = c-Kit kinase (Homo sapiens, UniProt P10721); assay: c-Kit kinase biochemical activity assay (AlphaScreen, biotin-(E4Y)10 phosphorylation); details: 100 μM ATP; read-out: Biochemical Inhibition IC50 Kit
# Description: Assays for biochemical and cell based activity are known in the art, for example, U.S. Patent Application Publication Number 2009/0076046, the disclosure of which is hereby incorporated by reference as it relates to such assays. For example, in one assay the biochemical activity IC50 values are determined with respect to inhibition of c-Kit kinase activity, where inhibition of phosphorylation of a peptide substrate is measured as a function of compound concentration. Compounds to be tested are dissolved in DMSO to a concentration of 20 mM. These are diluted 30 μL into 120 μL of DMSO (4 mM) and 1 μL is added to an assay plate. These are then serially diluted […] (50 μL to 100 μL DMSO) for a total of 8 points. Plates are prepared such that each kinase reaction is 20 μL in 1× kinase buffer (25 mM HEPES, pH 7.5, 2 mM MgCl2, 2 mM MnCl2, 0.01% Tween-20, 1 mM DTT, 0.01% BSA), 5% DMSO and 100 μM ATP. Substrate is 30 nM biotin-(E4Y) 10 (Millipore). C-kit kinase (obtained from Millipore (#14-559) or is prepared as described in U.S. Patent Application Publication Number 2009/0076046, the disclosure of which is hereby incorporated by reference as it relates to this assay) is at 0.75 ng per sample. After incubation of the kinase reaction for 1 hour at room temperature, 5 μL of donor beads (Streptavidin coated beads (Perkin Elmer Life Science) final concentration 10 μg/mL) in stop buffer (25 mM Hepes pH 7.5, 100 mM EDTA, 0.01% BSA) is added, the sample is mixed and incubated for 20 minutes at room temperature before adding 5 μL of acceptor beads (PY20 coated beads (Perkin Elmer Life Science) final concentration 10 μg/mL) in stop buffer. The samples are incubated for 60 minutes at room temperature and the signal per well is read on Envision reader. Phosphorylated substrate results in binding of the PY20 antibody and association of the donor and acceptor beads such that signal correlates with kinase activity. The signal vs. compound concentration is used to determine the IC50.
# TrkA kinase = TrkA kinase (Homo sapiens, UniProt P04629); assay: TrkA kinase biochemical activity assay (AlphaScreen); details: 100 μM ATP; read-out: Biochemical Inhibition IC50 TrkA
# Description: In one assay the biochemical activity IC50 values are determined with respect to inhibition of TrkA kinase activity, where inhibition of phosphorylation of a peptide substrate is measured as a function of compound concentration. Compounds to be tested, dissolved in DMSO (1 μL), are added to a white 384-well plate (Costar #3705). Working stocks of TrkA kinase (UBI), biotin-(E4Y)10 substrate (Upstate Biotech, Cat#12-440), and ATP (Sigma, Cat#A-3377) are prepared in 25 mM Hepes pH 7.5, 10 mM MnCl2, 1 mM DTT, 0.01% BSA, and 0.01% Tween-20. All components are added to the 384-well plate for a final concentration of 1 ng/well TrkA, 30 nM biotin-(E4Y)10 and 100 μM ATP in a volume of 20 μL. Each sample is at 5% DMSO. The plate is shaken for 1 minute at 1200 rpm, spun for 1 minute at 1000 rpm, then incubated for 40 minutes at room temperature. Just before use, working stocks of donor and acceptor beads from the AlphaScreen PY20 Detection Kit (PerkinElmer, Cat#676601M) are prepared in 25 mM Hepes pH 7.5, 100 mM EDTA. 0.01% BSA. Donor Beads solution (Streptavidin beads) is added (5 μL) to each well to final bead concentration of 10 μg/mL. The plate is incubated at room temperature for 20 minutes. Acceptor Beads solution (PY20 coated beads) are then added to each well (5 μL) to a final concentration of bead at 10 μg/mL. The plates are incubated at room temperature for 60 minutes. Fluorescence signal is recorded on the Envision reader. Phosphorylated substrate results in binding of the PY20 antibody and association of the donor and acceptor beads such that signal correlates with kinase activity. The signal vs. compound concentration is used to determine the IC50. Similar assays are used for TrkB and Trk C kinase.
# Chain of c-Kit kinase (P10721 26-976): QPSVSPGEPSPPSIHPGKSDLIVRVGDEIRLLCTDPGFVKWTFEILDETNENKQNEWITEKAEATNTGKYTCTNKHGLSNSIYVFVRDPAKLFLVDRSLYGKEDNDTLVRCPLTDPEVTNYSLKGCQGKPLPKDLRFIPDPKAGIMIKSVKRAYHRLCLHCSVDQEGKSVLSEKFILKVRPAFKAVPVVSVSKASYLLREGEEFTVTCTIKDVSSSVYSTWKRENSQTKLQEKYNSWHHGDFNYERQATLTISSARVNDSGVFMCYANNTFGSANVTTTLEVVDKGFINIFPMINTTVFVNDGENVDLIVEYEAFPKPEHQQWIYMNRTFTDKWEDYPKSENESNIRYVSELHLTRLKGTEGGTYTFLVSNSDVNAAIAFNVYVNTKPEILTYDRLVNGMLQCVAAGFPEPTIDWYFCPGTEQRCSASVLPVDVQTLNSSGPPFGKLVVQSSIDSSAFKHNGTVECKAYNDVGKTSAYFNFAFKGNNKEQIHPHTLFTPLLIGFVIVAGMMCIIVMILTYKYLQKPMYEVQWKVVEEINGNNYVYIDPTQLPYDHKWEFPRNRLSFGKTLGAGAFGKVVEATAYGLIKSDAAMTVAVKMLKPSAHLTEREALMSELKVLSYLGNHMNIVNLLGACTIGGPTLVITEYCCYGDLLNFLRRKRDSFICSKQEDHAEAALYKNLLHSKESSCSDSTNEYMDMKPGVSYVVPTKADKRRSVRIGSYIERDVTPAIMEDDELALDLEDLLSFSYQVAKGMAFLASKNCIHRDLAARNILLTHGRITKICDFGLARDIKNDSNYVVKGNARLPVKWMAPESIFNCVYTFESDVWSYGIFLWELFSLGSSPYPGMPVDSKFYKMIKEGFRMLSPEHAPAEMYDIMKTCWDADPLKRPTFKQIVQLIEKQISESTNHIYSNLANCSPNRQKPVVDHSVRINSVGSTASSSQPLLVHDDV
# Chain of TrkA kinase (P04629 33-796): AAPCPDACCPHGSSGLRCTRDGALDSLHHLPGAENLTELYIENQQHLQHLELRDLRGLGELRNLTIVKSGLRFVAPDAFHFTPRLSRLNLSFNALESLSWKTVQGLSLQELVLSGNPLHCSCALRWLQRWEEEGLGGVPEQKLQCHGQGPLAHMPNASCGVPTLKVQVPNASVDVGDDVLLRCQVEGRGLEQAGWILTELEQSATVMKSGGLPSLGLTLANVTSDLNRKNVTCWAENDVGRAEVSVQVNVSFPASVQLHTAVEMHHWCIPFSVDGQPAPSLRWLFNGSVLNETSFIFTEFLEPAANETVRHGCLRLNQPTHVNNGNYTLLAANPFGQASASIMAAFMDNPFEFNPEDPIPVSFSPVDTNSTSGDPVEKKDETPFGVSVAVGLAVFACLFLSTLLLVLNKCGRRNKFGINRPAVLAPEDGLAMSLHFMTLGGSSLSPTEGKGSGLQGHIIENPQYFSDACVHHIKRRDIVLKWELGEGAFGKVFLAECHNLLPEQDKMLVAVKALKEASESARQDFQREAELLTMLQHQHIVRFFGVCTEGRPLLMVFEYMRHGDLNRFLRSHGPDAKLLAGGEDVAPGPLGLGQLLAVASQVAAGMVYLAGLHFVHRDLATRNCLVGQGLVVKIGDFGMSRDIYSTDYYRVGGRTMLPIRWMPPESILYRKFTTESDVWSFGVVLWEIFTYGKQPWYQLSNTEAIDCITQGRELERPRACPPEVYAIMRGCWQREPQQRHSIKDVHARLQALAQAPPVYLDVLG
Structure (SMILES),IC50 (c-Kit kinase),IC50 (TrkA kinase)
"O=C(c1ccc(Nc2ccc(C3CC3)nc2)nc1F)c1c[nH]c2ncnc(NC3CC3)c12 [Compound P-4093, [4-(cyclopropylamino)-7H-pyrrolo[2,3-d]pyrimidin-5-yl]-[6-[(6-cyclopropyl-3-pyridyl)amino]-2-fluoro-3-pyridyl]methanone]",< 100 nM,< 10 nM
"CNc1ncnc2[nH]cc(C(=O)c3ccc(Nc4ccc(C5CC5)nc4)nc3F)c12 [Compound P-4094, [6-[(6-cyclopropyl-3-pyridyl)amino]-2-fluoro-3-pyridyl]-[4-(methylamino)-7H-pyrrolo[2,3-d]pyrimidin-5-yl]methanone]",< 10 nM,< 10 nM
"CCc1ccc(Nc2ccc(C(=O)c3c[nH]c4ncnc(NC5CCC5)c34)c(F)n2)cn1 [Compound P-4095, [4-(cyclobutylamino)-7H-pyrrolo[2,3-d]pyrimidin-5-yl]-[6-[(6-ethyl-3-pyridyl)amino]-2-fluoro-3-pyridyl]methanone]",< 100 nM,< 10 nM
"CCc1ccc(Nc2ccc(C(=O)c3c[nH]c4ncnc(NC5CCC(F)(F)CC5)c34)c(F)n2)cn1 [Compound P-4096, [4-[(4,4-difluorocyclohexyl)amino]-7H-pyrrolo[2,3-d]pyrimidin-5-yl]-[6-[(6-ethyl-3-pyridyl)amino]-2-fluoro-3-pyridyl]methanone]",< 1000 nM,< 100 nM
"CCc1ccc(Nc2ccc(C(=O)c3c[nH]c4ncnc(N[C@@H](C)c5ccc(F)cc5)c34)c(F)n2)cn1 [Compound P-4097, [6-[(6-ethyl-3-pyridyl)amino]-2-fluoro-3-pyridyl]-[4-[[(1S)-1-(4-fluorophenyl)ethyl]amino]-7H-pyrrolo[2,3-d]pyrimidin-5-yl]methanone]",< 1000 nM,< 100 nM
"CCc1ccc(Nc2ccc(C(=O)c3c[nH]c4ncnc(NCCCOC)c34)c(F)n2)cn1 [Compound P-4098, [6-[(6-ethyl-3-pyridyl)amino]-2-fluoro-3-pyridyl]-[4-(3-methoxypropylamino)-7H-pyrrolo[2,3-d]pyrimidin-5-yl]methanone]",< 100 nM,< 10 nM
"CCc1ccc(Nc2ccc(C(=O)c3c[nH]c4ncnc(NC5CCCC5)c34)c(F)n2)cn1 [Compound P-4099, [4-(cyclopentylamino)-7H-pyrrolo[2,3-d]pyrimidin-5-yl]-[6-[(6-ethyl-3-pyridyl)amino]-2-fluoro-3-pyridyl]methanone]",< 100 nM,< 100 nM
"CCCCNc1ncnc2[nH]cc(C(=O)c3ccc(Nc4ccc(CC)nc4)nc3F)c12 [Compound P-4100, [4-(butylamino)-7H-pyrrolo[2,3-d]pyrimidin-5-yl]-[6-[(6-ethyl-3-pyridyl)amino]-2-fluoro-3-pyridyl]methanone]",< 100 nM,< 100 nM
"CC(C)Nc1ncnc2[nH]cc(C(=O)c3ccc(NC4CCCCC4)nc3F)c12 [Compound P-4101, [6-(cyclohexylamino)-2-fluoro-3-pyridyl]-[4-(isopropylamino)-7H-pyrrolo[2,3-d]pyrimidin-5-yl]methanone]",< 1000 nM,< 100 nM
"CNc1ncnc2[nH]cc(C(=O)c3ccc(NC4CCCCC4)nc3F)c12 [Compound P-4102, [6-(cyclohexylamino)-2-fluoro-3-pyridyl]-[4-(methylamino)-7H-pyrrolo[2,3-d]pyrimidin-5-yl]methanone]",< 1000 nM,< 100 nM
"COc1cncc(Nc2ccc(C(=O)c3c[nH]c4ncnc(NCC(F)(F)F)c34)c(F)n2)c1 [Compound P-4103, [2-fluoro-6-[(5-methoxy-3-pyridyl)amino]-3-pyridyl]-[4-(2,2,2-trifluoroethylamino)-7H-pyrrolo[2,3-d]pyrimidin-5-yl]methanone]",< 1000 nM,< 100 nM
"COc1cncc(Nc2ccc(C(=O)c3c[nH]c4ncnc(NC5CCCCC5)c34)c(F)n2)c1 [Compound P-4104, [4-(cyclohexylamino)-7H-pyrrolo[2,3-d]pyrimidin-5-yl]-[2-fluoro-6-[(5-methoxy-3-pyridyl)amino]-3-pyridyl]methanone]",< 1000 nM,< 100 nM
